In ChEMBL document CHEMBL6074704, “The Antiepileptic Drug Levetiracetam Inhibits Carbonic Anhydrase: In Vitro and In Silico Studies on Catalytically Active Human Isoforms” (ACS Med Chem Lett, 2024):

Legend:
[1] = target: Carbonic anhydrase 7 (Homo sapiens, UniProt P43166)
Description: Inhibition of human CA7 preincubated for 15 mins by phenol red staining based stopped flow CO2 hydrase assay

[2] = target: Carbonic anhydrase 6 (Homo sapiens, UniProt P23280); assay: Inhibition of human CA6 preincubated for 15 mins by phenol red staining based stopped flow CO2 hydrase assay
[3] = target: Carbonic anhydrase 4 (Homo sapiens, UniProt P22748); assay: Inhibition of human CA4 preincubated for 15 mins by phenol red staining based stopped flow CO2 hydrase assay
[4] = target: Carbonic anhydrase 3 (Homo sapiens, UniProt P07451)
Description: Inhibition of human CA3 preincubated for 15 mins by phenol red staining based stopped flow CO2 hydrase assay

[5] = target: Carbonic anhydrase 2 (Homo sapiens, UniProt P00918); assay: Inhibition of human CA2 preincubated for 15 mins by phenol red staining based stopped flow CO2 hydrase assay
[6] = target: Carbonic anhydrase 5B, mitochondrial (Homo sapiens, UniProt Q9Y2D0); assay: Inhibition of human CA VB preincubated for 15 mins by phenol red staining based stopped flow CO2 hydrase assay
[7] = target: Carbonic anhydrase 5A, mitochondrial (Homo sapiens, UniProt P35218); assay: Inhibition of human CA VA preincubated for 15 mins by phenol red staining based stopped flow CO2 hydrase assay
[8] = target: Carbonic anhydrase 12 (Homo sapiens, UniProt O43570)
Description: Inhibition of human CA12 preincubated for 15 mins by phenol red staining based stopped flow CO2 hydrase assay

[9] = target: Carbonic anhydrase 1 (Homo sapiens, UniProt P00915); assay: Inhibition of human CA1 preincubated for 15 mins by phenol red staining based stopped flow CO2 hydrase assay
[10] = target: Carbonic anhydrase 13 (Homo sapiens, UniProt Q8N1Q1); assay: Inhibition of human CA13 preincubated for 15 mins by phenol red staining based stopped flow CO2 hydrase assay
[11] = target: Carbonic anhydrase 14 (Homo sapiens, UniProt Q9ULX7); assay: Inhibition of human CA14 preincubated for 15 mins by phenol red staining based stopped flow CO2 hydrase assay
[12] = target: Carbonic anhydrase 9 (Homo sapiens, UniProt Q16790)

Carbonic anhydrase 13, sequence (Q8N1Q1 whole entry): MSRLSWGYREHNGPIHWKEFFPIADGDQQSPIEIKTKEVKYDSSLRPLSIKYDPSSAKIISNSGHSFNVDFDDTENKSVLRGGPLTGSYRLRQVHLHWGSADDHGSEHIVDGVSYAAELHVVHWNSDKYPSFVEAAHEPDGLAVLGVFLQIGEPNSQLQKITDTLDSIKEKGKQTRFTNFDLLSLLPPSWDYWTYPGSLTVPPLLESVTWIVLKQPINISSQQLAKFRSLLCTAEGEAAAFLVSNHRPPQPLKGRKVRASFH
Carbonic anhydrase 4, sequence (P22748 whole entry): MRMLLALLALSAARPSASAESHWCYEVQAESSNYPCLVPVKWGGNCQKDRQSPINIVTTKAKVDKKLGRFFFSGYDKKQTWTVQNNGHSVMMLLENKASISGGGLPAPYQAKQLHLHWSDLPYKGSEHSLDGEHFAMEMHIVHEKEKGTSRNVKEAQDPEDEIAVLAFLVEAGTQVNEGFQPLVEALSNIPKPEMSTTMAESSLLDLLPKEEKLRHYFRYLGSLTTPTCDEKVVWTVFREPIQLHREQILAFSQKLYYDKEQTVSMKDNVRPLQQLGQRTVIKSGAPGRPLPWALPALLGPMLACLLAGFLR
Carbonic anhydrase 6, sequence (P23280 whole entry): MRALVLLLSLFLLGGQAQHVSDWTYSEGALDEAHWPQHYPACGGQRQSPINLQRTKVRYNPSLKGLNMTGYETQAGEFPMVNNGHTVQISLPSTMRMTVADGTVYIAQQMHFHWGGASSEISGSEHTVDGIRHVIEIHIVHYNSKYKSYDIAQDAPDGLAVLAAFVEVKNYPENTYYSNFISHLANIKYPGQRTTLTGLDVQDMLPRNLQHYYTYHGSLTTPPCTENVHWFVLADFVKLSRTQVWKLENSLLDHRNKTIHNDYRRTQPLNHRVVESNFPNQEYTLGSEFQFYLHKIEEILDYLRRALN
Carbonic anhydrase 7, sequence (P43166 whole entry): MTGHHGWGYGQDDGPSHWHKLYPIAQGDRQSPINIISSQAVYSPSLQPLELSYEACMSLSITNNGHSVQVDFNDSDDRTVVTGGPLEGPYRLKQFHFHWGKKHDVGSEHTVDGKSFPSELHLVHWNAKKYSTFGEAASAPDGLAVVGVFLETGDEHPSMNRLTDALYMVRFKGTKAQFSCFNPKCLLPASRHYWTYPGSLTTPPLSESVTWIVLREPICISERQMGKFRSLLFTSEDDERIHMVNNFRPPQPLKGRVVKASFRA
Carbonic anhydrase 14, sequence (Q9ULX7 whole entry): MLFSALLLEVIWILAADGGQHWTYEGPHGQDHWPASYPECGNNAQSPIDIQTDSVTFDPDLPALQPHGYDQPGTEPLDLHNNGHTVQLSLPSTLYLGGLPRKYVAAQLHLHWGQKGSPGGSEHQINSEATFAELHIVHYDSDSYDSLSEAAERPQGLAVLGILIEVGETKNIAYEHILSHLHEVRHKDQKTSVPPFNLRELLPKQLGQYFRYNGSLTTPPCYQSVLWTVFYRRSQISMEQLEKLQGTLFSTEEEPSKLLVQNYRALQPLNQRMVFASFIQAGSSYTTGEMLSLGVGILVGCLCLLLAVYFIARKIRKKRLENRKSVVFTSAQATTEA
Carbonic anhydrase 5A, mitochondrial, sequence (P35218 whole entry): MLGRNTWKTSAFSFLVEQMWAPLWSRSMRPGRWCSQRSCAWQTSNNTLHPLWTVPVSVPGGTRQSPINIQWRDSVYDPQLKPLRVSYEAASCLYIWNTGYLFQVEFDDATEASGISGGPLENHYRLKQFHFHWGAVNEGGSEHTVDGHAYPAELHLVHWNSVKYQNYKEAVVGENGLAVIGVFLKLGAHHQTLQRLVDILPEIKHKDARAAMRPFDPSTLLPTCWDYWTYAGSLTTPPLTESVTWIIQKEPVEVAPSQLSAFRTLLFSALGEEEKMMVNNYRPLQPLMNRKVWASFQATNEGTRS
Carbonic anhydrase 3, sequence (P07451 whole entry): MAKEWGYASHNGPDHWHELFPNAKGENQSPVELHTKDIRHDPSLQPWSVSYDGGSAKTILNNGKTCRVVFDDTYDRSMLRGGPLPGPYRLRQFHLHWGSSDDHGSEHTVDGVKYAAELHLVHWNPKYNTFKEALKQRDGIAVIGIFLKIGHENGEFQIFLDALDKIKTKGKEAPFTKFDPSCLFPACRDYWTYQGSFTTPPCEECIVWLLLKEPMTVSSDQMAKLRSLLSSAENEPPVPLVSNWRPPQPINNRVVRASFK
Carbonic anhydrase 12, sequence (O43570 whole entry): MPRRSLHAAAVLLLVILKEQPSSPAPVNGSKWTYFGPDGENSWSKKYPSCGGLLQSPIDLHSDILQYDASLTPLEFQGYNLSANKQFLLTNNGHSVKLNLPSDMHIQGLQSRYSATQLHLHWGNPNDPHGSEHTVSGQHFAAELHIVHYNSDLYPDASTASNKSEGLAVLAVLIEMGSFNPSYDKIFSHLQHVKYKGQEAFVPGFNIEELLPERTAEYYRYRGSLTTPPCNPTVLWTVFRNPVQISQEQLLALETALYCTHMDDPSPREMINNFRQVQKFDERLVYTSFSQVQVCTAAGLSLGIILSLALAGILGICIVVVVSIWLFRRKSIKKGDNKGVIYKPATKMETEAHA
Carbonic anhydrase 1, sequence (P00915 whole entry): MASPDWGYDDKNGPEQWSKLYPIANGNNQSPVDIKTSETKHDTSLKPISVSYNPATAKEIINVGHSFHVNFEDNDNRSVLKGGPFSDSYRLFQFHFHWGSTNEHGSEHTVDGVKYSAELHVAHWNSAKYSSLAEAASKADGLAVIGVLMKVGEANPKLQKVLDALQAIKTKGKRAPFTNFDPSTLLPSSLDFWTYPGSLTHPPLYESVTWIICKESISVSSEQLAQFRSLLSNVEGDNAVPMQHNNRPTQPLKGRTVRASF
Carbonic anhydrase 5B, mitochondrial, sequence (Q9Y2D0 whole entry): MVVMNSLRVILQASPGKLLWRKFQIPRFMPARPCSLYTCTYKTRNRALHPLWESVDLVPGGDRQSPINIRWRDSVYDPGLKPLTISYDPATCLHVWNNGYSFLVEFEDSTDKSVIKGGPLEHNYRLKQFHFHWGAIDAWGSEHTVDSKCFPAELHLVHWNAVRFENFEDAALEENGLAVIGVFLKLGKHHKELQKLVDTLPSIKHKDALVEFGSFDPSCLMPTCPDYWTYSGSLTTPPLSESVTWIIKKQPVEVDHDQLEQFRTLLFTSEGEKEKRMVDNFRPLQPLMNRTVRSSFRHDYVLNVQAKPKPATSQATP

With `CC[C@@H](C(N)=O)N1CCCC1=O` as the molecule, how does the Ki [1] read?
The Ki was 7.55 µM.

And the Ki [2]?
The Ki was 8.4 µM.

And the Ki [3]?
Its Ki is 5.3 µM.

And the Ki [4]?
Its Ki is 2.44 µM.

And the Ki [5]?
Its Ki is 3.92 µM.

And the Ki [6]?
Its Ki is 3.86 µM.

What about the Ki [7] of the same molecule?
Its Ki is 9.2 µM.

And the Ki [8]?
The Ki was 0.054 µM.

And the Ki [9]?
Its Ki is 7.95 µM.

And the Ki [10]?
The Ki was 4.17 µM.

What about the Ki [11] of the same molecule?
The Ki was 2.27 µM.

What about the Ki [12] of the same molecule?
The Ki was 0.089 µM.
